From patent US20170001956A1, “HYDROCARBYL CARBOXYBETAINE AND METHOD FOR PREVENTING HOFMANN ELIMINATION IN ALKALINE ENVIRONMENT” (NATIONAL CHUNG CHENG UNIVERSITY, priority 2015, published 2017)

Tested on: Staphylococcus aureus
Conditions: treated with 1M NaOH; compared to CB treated with 1M NaOH (CB-NaOH); FIG. 7

CC(C[N+](C)(C)CCSSCC[N+](C)(C)CC(C)C(=O)O)C(=O)O (stereo not drawn) [α-mCB, carboxy-alpha-methyl-betaine disulfide]
adsorption resistance against the biofouling of S. aureus: better adsorption resistance
